How the values were obtained:
[1] = test system: dendritic cells derived from human monocytes; assay: Stimulation of human cells in vitro: ELISA of secreted cytokines; format: cell-based; settings: 2 days culture; DPPC liposomes, R-848 2.96 μg/ml, ER804057 0.1 μg/ml; mean of 4 donors
Experimental: (§1) The capacity of the compositions according to the invention to induce the maturation of dendritic cells derived from human monocytes in vitro is evaluated for 4 independent donors. The monocytes are obtained from peripheral blood mononuclear cells and are cultured for 5-6 days in the presence of IL4 and of GM-CSF. […] There are then carried out a phenotype analysis by flow cytometry, making it possible to measure the expression of the maturation markers CD25, CD80 and CD83, and an ELISA measurement of the cytokines (TNF-α, IL6 and IL12p70) secreted by these cells. The results indicated in the tables below represent the mean values calculated for the 4 donors: […]

[2] = test system: BALB/c mice; assay: Immunization test on mice: specific IgG1 and IgG2a by ELISA; format: in vivo; settings: Tat vaccine compositions; level and dispersion of the results between mice
Experimental: 5. Immunization Test on Mice.
There are available 4 groups of 6 female BALB/c mice 8 weeks old to which one of the compositions prepared in example 4 is injected subcutaneously at the rate of a dose of 200 μl per mouse; the injections are performed on D0 and at D21.
Blood samples are collected at the retro-orbital sinus at D14 for assessing the primary response and at D32 for the secondary response. The determination of the level of specific IgG1 and IgG2a is carried out by virtue of the standard ELISA tests.
The results obtained as regards the humoral responses are summarized in the table below and in FIGS. 1 to 4, where the IgG levels are expressed as arbitrary ELISA units (log10).
For each group of mice, the value indicated in the table is the mean geometric titer of the values obtained for each of the mice.

[3] = test system: dendritic cells derived from human monocytes; assay: Stimulation of human cells in vitro: maturation markers by flow cytometry; format: cell-based; settings: 2 days culture; DPPC liposomes, R-848 2.96 μg/ml, ER804057 0.1 μg/ml; mean of 4 donors
Experimental: as §1

[4] = test system: mice; settings: ovalbumin as antigen; cited from earlier work
[5] = target: T1, Toll-like 7 receptor (Homo sapiens, UniProt Q9NYK1); settings: cited from earlier work
T1 sequence (Q9NYK1 27-1049): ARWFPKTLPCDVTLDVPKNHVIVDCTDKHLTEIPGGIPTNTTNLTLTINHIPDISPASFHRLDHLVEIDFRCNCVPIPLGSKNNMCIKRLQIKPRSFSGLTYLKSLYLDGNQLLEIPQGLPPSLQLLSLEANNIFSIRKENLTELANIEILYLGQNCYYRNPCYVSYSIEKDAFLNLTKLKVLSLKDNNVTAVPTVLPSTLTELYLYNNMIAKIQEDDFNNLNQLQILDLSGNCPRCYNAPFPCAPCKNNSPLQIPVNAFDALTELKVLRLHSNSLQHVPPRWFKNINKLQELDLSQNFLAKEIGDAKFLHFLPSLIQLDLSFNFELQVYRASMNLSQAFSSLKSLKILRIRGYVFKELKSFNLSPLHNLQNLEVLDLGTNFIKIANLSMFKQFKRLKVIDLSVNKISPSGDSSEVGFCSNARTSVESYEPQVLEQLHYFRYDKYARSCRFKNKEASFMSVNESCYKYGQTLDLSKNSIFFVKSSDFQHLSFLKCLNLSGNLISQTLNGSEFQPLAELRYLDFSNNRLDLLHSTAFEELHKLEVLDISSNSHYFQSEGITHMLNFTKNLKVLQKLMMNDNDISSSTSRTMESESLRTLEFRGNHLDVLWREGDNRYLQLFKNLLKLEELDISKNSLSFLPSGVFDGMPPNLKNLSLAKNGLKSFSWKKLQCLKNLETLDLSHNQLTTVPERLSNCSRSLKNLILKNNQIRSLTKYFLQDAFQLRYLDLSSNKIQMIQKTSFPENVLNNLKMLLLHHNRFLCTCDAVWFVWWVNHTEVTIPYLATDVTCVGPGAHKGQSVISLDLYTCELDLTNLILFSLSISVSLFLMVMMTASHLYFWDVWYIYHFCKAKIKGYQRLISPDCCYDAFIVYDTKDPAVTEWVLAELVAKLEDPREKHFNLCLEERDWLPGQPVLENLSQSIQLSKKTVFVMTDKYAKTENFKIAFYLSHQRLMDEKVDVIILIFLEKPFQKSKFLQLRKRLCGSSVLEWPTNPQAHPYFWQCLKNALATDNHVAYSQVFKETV

[6] = target: T2, Toll-like 8 receptor (Homo sapiens, UniProt Q9NR97); settings: cited from earlier work
T2 sequence (Q9NR97 27-1041): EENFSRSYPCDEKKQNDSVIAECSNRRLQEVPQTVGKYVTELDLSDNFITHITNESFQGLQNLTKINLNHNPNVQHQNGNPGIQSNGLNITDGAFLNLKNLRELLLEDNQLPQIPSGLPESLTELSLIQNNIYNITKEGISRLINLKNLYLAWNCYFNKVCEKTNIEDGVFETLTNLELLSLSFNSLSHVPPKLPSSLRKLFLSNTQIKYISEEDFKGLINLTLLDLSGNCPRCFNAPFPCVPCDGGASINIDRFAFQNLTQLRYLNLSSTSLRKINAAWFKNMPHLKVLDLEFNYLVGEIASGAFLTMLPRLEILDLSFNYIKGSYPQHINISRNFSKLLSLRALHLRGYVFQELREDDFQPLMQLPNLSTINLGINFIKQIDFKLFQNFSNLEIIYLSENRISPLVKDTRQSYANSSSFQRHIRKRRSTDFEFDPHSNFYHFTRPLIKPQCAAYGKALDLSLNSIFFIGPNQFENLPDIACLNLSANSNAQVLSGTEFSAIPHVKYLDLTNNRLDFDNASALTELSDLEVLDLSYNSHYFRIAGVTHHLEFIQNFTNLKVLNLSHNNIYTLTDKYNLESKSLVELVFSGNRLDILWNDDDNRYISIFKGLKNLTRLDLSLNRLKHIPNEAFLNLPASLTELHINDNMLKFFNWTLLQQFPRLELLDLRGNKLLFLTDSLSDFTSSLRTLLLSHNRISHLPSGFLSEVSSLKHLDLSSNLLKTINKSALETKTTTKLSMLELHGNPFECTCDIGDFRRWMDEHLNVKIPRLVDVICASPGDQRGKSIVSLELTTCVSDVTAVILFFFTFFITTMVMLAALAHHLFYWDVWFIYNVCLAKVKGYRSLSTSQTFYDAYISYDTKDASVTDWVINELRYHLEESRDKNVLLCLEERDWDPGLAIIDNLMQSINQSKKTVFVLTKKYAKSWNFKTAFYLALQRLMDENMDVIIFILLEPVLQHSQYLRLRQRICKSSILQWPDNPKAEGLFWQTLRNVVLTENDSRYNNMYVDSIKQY

Compound: CCCCCCCCCCCC(=O)CC(=O)N[C@H](COCC[C@@H](CCCCCCC)OC(=O)CCCCCCCCCCC)COP(=O)(O)OCCNC(=O)NCCOP(=O)(O)OC[C@@H](COCC[C@@H](CCCCCCC)OC(=O)CCCCCCCCCCC)NC(=O)CC(=O)CCCCCCCCCCC [ER804057, (1R,6R,22R,27R)-1,27-diheptyl-1,27-bisdodecanoyl-9,19-dihydroxy-9,19-dioxido-14-oxo-6,22-bis[(1,3-dioxotetradecyl)amino]-4,8,10,18,20,24-hexaoxa-13,15-diaza-9,19-diphosphoheptacosan]
- Quantity of cytokines IL 6 [1]: 8349 pg/mL
- Quantity of cytokines IL12p70 [1]: 22 pg/mL
- Quantity of cytokines TNF-α [1]: 393 pg/mL
- IgG2a response obtained after the injection of the booster, individual mice (FIGS. 1 to 4) [2]: on average satisfactory
- Percentage of cells expressing the markers CD25 [3]: 35%
- Percentage of cells expressing the markers CD80 [3]: 46%
- Percentage of cells expressing the markers CD83 [3]: 15%

Compound: CCOCc1nc2c(N)nc3ccccc3c2n1CC(C)(C)O [R-848, 4-amino-2-ethoxymethyl-α,α-dimethyl-1-H-imidazo[4,5c]quinoline-1-ethanol]
- adjuvant type [4]: adjuvant of the TH1 type
- Quantity of cytokines IL 6 [1]: 8263 pg/mL
- Quantity of cytokines IL12p70 [1]: 288 pg/mL
- Quantity of cytokines TNF-α [1]: 1727 pg/mL
- activation of cells via the Toll-like 7 receptor [5]: activates the cells
- IgG2a response obtained after the injection of the booster, individual mice (FIGS. 1 to 4) [2]: on average satisfactory
- Percentage of cells expressing the markers CD25 [3]: 25%
- Percentage of cells expressing the markers CD80 [3]: 34%
- Percentage of cells expressing the markers CD83 [3]: 19%
- activation of cells via the Toll-like 8 receptor [6]: activates the cells

Reference: patent US20070087009A1, “Immunostimulant composition comprising at least one toll-like receptor 7 or toll-like receptor 8 agonist and a toll-like receptor 4 agonist” (SANOFI PASTEUR, priority 2003, published 2007)
